Experimental data reported in patent US10206388B2, “Formulation component” (SYNGENTA LIMITED, priority 2011, dated 2019).

Columns and labels:
Format in all cases: in vivo
[1] = tested on: Brachiaria platyphylla (BRAPL); assay: Glasshouse weed test, mesotrione with adjuvants; details: Table 10, Example 7: mesotrione 60 or 120 g/ha; adjuvant 0.2% v/v; Tetronic 1107 in spray tank; mean over two rates, three replicates, 7, 14 and 20 days
Description: (§1) The aromatic ester Finsolv® TN (C12-C15 alkyl benzoate) was tested in a glasshouse against three weed species using the herbicide mesotrione. An agrochemical composition was prepared containing 0.2% v/v of the adjuvant in a track sprayer and was applied at a volume of 200 liters per hectare. Mesotrione was applied at either 60 or 120 grams of pesticide per hectare on weeds which had been grown to the 1.3 or 1.4 leaf stage. The weed species were Xanthium strumarium (XANST), Brachiaria platyphylla (BRAPL), and Digitaria sanguinalis (DIGSA). The commercially available surfactant Tetronic® 1107 was used in the spray tank at a concentration of 0.036 g/l alongside the lower concentration of mesotrione and at a concentration of 0.072 g/l at the higher concentration of mesotrione.
(§2) Each spray test was replicated three times. The efficacy of the herbicide was assessed visually and expressed as a percentage of the leaf area killed. Samples were assessed at time periods of 7, 14 and 20 days following application. The results shown in Table 10 below are mean averages over the two rates of mesotrione, three replicates and the three assessment timings, and are compared to the efficacy of mesotrione in the absence of adjuvant and mesotrione in the presence of the well-known adjuvant Tween® 20.

[2] = tested on: Digitaria sanguinalis (DIGSA); assay: Glasshouse weed test, mesotrione with adjuvants; details: Table 10, Example 7: mesotrione 60 or 120 g/ha; adjuvant 0.2% v/v; Tetronic 1107 in spray tank; mean over two rates, three replicates, 7, 14 and 20 days
Description: as §1, §2

[3] = tested on: Xanthium strumarium (XANST); assay: Glasshouse weed test, mesotrione with adjuvants; details: Table 10, Example 7: mesotrione 60 or 120 g/ha; adjuvant 0.2% v/v; Tetronic 1107 in spray tank; mean over two rates, three replicates, 7, 14 and 20 days
Description: as §1, §2

[4] = tested on: three weed species (XANST, BRAPL, DIGSA); assay: Glasshouse weed test, mesotrione with adjuvants, mean across species; details: mean over two rates
Description: as §1, §2
A second experiment was conducted to assess the efficacy of Finsolv® TN as an adjuvant in compositions of mesotrione. This was carried out as outlined above, with the following change: samples were assessed at 6, 14 and 20 days post application.
The results shown in Table 11 below are mean averages over the two rates of mesotrione, three replicates, the three assessment timings, and the three weed species, and are compared to the efficacy of mesotrione in the absence of adjuvant and mesotrione in the presence of the well-known adjuvant Tween® 20.
as §1, with “An” for “The aromatic ester Finsolv® TN (C12-C15 alkyl benzoate) was tested in a glasshouse against three weed species using the herbicide mesotrione. An”
as §2, with “Brij®96. The results shown in Table 16 below are mean averages over the two rates of mesotrione, three replicates, three assessment timings and three weed species. The results are compared to the efficacy of mesotrione in the absence of an adjuvant and mesotrione in the presence of the commercially available adjuvant Brij®96.” for “Tween® 20.”
An agrochemical composition was prepared containing 0.2% v/v of the adjuvant in a track sprayer and was applied at a volume of 200 liters per hectare. The adjuvant oils were emulsified using a small amount of the surfactant Pluronic® PE 10500, which was present in the composition at a concentration of 0.02% v/v. Mesotrione was applied at either 60 or 120 grams of pesticide per hectare on weeds which had been grown to the 1.3 or 1.4 leaf stage. The weed species were Xanthium strumarium (XANST), Brachiaria platyphylla (BRAPL), and Digitaria sanguinalis (DIGSA). […]

[5] = tested on: four weed species (POLCO, BRAPL, COMBE, DIGSA); assay: Glasshouse weed test, mesotrione with adjuvants at several rates, mean across species; details: Table 25, Example 21: absence of adjuvant, mesotrione 60 or 120 g/ha, Tetronic 1107, mean over two rates, three replicates, 14 and 21 days
Description: An agrochemical composition was prepared containing either 0.2, 0.1, 0.05 or 0.025% v/v of the adjuvant in a track sprayer and was applied at a volume of 200 liters per hectare. The commercial adjuvant Tween20® was applied at 0.2% v/v. Mesotrione was applied at either 60 or 120 grams of pesticide per hectare on weeds which had been grown to the 1.3 or 1.4 leaf stage. The commercially available surfactant Tetronic® 1107 was used in the spray tank at a concentration of 0.036 g/l alongside the lower concentration of mesotrione and at a concentration of 0.072 g/l at the higher concentration of mesotrione. The weed species were Polygonum convolvulus (POLCO) 13, Brachiaria platyphylla (BRAPL) 12-13, Comelina berghalensis (COMBE) 12 and Digitaria sanguinalis (DIGSA) 13.
Each spray test was replicated three times. The efficacy of the herbicide was assessed visually and expressed as a percentage of the leaf area killed. Samples were assessed at time periods of 14 and 21 days following application. The results shown in Table 25 below are mean averages over the two rates of mesotrione, three replicates, four weed species and the two assessment timings. The adjuvants are compared to the efficacy of mesotrione in the absence of adjuvant and mesotrione in the presence of the well-known adjuvant Tween®20.

In the case of `CS(=O)(=O)c1ccc(C(=O)C2C(=O)CCCC2=O)c([N+](=O)[O-])c1` [Mesotrione, mesotrione], the “Mean percentage kill BRAPL” value [1] is reported as 5.3 B %, the “Mean percentage kill DIGSA” value [2] is reported as 20.0 B % and the “Mean percentage kill XANST” value [3] is reported as 36.7 A %. The “Mean percentage kill, Mean across species” value ([4]; Table 10, Example 7: mesotrione 60 or 120 g/ha, adjuvant 0.2% v/v, Tetronic 1107 in spray tank, three replicates, 7, 14 and 20 days) was 19.9 B %, the “Mean percentage kill, Mean across species” value ([4]; Table 11, Example 7 second experiment: mesotrione 60 or 120 g/ha, adjuvant 0.2% v/v, three replicates, 6, 14 and 20 days, three weed species) was 33.0 B % and the “Mean percentage kill, Mean across species” value ([4]; Table 16, Example 12: mesotrione 60 or 120 g/ha, adjuvant 0.2% v/v, Tetronic 1107 in spray tank, three replicates, 7, 14 and 20 days, three weed species) was 18.0 C %. The “Mean percentage kill, Mean across species” value ([4]; Table 21, Example 17: mesotrione 60 or 120 g/ha, adjuvant 0.2% v/v emulsified with Pluronic PE 10500 0.02% v/v, Tetronic 1107, three replicates, 14 and 21 days, three weed species) was 19.9C %, the “Mean percentage kill, Mean across species” value ([4]; Table 29, Example 26: mesotrione 60 or 120 g/ha, adjuvant 0.2% v/v, Tetronic 1107, three replicates, 14 and 21 days, three weed species) was 39.4C % and the “Mean percentage kill, Mean across species” value ([4]; Table 35, Example 35: mesotrione 60 or 120 g/ha, adjuvant 0.2% v/v, Tetronic 1107, three replicates, 14 and 21 days, three weed species) was 33.8B %. The “Mean percentage kill, Mean across species” value [5] was 33.7D %.
